Measured values as given in patent US12492188B2, “1H-benzo[D]imidazole derivatives as TLR9 inhibitors for the treatment of fibrosis” (BRISTOL-MYERS SQUIBB COMPANY, priority 2020, dated 2025).
Like-named read-outs stand apart in the source and are kept apart here.

How the values were obtained:
Type in all cases: cell-based
human TLR9 = target: T1, human TLR9 (Homo sapiens, UniProt Q9NR96); experiment: TLR9 inhibition reporter assay (HEK-Blue cells, secreted embryonic alkaline phosphatase reporter)
T1 construct: host or cells: HEK-Blue cells (HEK293-derived reporter line)
T1 sequence (Q9NR96 26-1032): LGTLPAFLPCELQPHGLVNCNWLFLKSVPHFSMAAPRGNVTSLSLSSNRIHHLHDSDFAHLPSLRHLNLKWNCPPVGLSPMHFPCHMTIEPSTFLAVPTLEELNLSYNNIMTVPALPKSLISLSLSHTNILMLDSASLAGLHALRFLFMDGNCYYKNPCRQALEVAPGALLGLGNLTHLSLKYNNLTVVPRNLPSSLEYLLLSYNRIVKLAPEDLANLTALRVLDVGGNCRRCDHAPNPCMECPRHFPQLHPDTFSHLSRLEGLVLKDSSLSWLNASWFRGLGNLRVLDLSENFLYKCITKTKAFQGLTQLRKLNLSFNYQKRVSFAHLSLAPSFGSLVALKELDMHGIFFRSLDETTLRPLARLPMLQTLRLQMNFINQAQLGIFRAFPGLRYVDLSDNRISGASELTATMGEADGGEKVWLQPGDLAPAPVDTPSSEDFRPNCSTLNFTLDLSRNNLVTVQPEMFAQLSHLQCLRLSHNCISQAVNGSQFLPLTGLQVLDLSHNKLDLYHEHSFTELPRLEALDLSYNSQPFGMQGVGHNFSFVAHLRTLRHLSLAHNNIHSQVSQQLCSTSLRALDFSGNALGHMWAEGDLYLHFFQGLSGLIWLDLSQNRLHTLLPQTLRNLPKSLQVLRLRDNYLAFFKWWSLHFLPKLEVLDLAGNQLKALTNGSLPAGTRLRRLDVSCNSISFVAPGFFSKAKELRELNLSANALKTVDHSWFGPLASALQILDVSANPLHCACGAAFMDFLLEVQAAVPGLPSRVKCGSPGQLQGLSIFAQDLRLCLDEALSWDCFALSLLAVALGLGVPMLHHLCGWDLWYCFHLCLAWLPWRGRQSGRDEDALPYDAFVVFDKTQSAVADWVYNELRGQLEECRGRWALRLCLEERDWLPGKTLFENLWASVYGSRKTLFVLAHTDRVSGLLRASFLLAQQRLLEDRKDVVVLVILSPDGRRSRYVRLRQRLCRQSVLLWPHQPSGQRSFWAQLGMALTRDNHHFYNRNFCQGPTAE
Procedure, shortened: (§1)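 Read-out is SEAP colour from HEK-Blue Detection medium after 22 h at 37 °C, converted to percent inhibition between agonist-plus-DMSO and reference-inhibitor wells. Receptor-overexpressing HEK-Blue cells received compound over 0.05 nM–50 μM for 30 min before agonist: gardiquimod 7.5 μM for TLR7, R848 15.9 μM for TLR8, ODN2006 5 nM for TLR9.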

human TLR8 = target: T2, human TLR8 (Homo sapiens, UniProt Q9NR97); experiment: TLR8 inhibition reporter assay (HEK-Blue cells, secreted embryonic alkaline phosphatase reporter); conditions: HEK-Blue cells overexpressing human TLR8, stimulated with R848 15.9 μM; read-out: TLR 8 IC50
T2 construct: host or cells: HEK-Blue cells (HEK293-derived reporter line)
T2 sequence (Q9NR97 27-1041): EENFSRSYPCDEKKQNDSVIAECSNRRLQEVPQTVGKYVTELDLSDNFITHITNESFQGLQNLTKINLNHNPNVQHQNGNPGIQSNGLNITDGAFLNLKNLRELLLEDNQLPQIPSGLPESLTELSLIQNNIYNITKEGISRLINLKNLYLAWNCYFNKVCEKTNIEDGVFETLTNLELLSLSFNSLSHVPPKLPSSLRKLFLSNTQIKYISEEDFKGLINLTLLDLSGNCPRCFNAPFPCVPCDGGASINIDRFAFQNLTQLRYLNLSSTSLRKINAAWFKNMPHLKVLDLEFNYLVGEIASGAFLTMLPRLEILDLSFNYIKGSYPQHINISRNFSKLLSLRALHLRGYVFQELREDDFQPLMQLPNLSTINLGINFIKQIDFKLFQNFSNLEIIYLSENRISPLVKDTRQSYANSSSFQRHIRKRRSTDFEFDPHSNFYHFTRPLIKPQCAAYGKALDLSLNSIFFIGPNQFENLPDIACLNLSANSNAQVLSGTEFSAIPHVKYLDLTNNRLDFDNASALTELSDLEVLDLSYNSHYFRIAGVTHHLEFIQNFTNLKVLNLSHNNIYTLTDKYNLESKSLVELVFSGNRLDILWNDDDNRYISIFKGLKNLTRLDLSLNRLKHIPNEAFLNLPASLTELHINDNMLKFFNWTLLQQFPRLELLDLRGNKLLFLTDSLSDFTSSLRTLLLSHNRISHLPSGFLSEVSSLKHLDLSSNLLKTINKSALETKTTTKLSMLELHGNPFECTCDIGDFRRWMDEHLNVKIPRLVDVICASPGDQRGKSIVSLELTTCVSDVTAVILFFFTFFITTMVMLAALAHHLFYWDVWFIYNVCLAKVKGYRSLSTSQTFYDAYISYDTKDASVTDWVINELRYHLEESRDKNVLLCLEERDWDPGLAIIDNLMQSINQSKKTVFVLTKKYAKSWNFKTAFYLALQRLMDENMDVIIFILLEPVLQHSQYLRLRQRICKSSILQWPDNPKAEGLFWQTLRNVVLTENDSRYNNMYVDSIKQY
Procedure, shortened: as §1

human TLR7 = target: T3, human TLR7 (Homo sapiens, UniProt Q9NYK1); experiment: TLR7 inhibition reporter assay (HEK-Blue cells, secreted embryonic alkaline phosphatase reporter); conditions: HEK-Blue cells overexpressing human TLR7, stimulated with gardiquimod 7.5 μM; read-out: TLR 7 IC50
T3 construct: host or cells: HEK-Blue cells (HEK293-derived reporter line)
T3 sequence (Q9NYK1 27-1049): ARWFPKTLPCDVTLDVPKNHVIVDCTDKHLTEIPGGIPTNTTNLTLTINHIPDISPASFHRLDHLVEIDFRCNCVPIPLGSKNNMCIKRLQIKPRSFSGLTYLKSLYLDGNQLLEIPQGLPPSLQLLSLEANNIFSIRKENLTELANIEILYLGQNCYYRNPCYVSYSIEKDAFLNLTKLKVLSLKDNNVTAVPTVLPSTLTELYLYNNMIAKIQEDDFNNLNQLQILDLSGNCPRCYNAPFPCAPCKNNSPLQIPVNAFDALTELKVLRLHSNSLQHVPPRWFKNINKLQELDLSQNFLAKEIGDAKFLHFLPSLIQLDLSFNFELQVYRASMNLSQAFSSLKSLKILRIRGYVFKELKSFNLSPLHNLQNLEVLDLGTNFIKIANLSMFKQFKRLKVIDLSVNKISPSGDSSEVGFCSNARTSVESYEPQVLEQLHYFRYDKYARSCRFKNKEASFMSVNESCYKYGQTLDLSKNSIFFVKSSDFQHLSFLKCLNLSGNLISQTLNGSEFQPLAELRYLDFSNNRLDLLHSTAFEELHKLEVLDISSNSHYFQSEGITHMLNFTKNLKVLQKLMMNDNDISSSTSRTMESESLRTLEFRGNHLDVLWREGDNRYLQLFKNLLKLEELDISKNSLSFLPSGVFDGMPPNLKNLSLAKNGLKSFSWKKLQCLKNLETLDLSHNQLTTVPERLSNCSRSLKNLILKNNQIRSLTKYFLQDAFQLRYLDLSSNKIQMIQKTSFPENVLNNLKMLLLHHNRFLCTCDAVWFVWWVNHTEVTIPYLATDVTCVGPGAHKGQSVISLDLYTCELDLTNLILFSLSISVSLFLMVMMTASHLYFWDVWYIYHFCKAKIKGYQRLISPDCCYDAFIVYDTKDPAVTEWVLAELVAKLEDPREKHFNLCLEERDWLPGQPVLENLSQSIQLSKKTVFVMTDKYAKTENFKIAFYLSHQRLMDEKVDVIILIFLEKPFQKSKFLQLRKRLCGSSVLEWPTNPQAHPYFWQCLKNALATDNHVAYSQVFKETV
Procedure, shortened: as §1

[1] = HEK-Blue cells overexpressing human TLR9, stimulated with ODN2006 5 nM, read-out: TLR 9 IC50
[2] = HEK-Blue human TLR9 reporter cells

Compound | IC50 (human TLR9; [1]) [µM] | IC50 (human TLR9; [2]) [µM] | IC50 (human TLR8) [µM] | IC50 (human TLR7) [µM]
Cn1c(-c2ccc(S(C)(=O)=O)cc2)nc2c(F)cc(C3CCN(C4CC5CCC(C4)N5C4CCC4)CC3)cc21 (single isomer, unassigned) [Example 292, 6-(1-(8-cyclobutyl-8-azabicyclo[3.2.1]octan-3-yl)piperidin-4-yl)-4-fluoro-1-methyl-2-(4-(methylsulfonyl)phenyl)-1H-benzo[d]imidazole] | 0.147 | 0.15 | > 50 | 21.7
Cn1c(-c2ccc(S(C)(=O)=O)cc2)nc2c(F)cc(C3CCN(C4CC5CCC(C4)N5C4CCC4)CC3)cc21 (single isomer, unassigned) [Example 293, 6-(1-(8-cyclobutyl-8-azabicyclo[3.2.1]octan-3-yl)piperidin-4-yl)-4-fluoro-1-methyl-2-(4-(methylsulfonyl)phenyl)-1H-benzo[d]imidazole] | 0.011 | 0.011 | 44.2 | 8.2
CC(C)N1CCCC(N2CCC(c3cc(F)c4nc(-c5ccc(S(C)(=O)=O)cc5)n(C)c4c3)CC2)CC1 (single isomer, unassigned) [Example 294, 4-fluoro-6-(1-(1-isopropylazepan-4-yl)piperidin-4-yl)-1-methyl-2-(4-(methylsulfonyl)phenyl)-1H-benzo[d]imidazole] | 0.055 | 0.055 | > 50 | 2.3
CC(C)N1CCCC(N2CCC(c3cc(F)c4nc(-c5ccc(S(C)(=O)=O)cc5)n(C)c4c3)CC2)CC1 (single isomer, unassigned) [Example 295, 4-fluoro-6-(1-(1-isopropylazepan-4-yl)piperidin-4-yl)-1-methyl-2-(4-(methylsulfonyl)phenyl)-1H-benzo[d]imidazole] | 0.024 | 0.024 | > 50 | 0.7
Cn1c(-c2ccc(S(C)(=O)=O)cc2)nc2c(F)cc(C3CCN(C4CCCN(CC5CC5)CC4)CC3)cc21 (single isomer, unassigned) [Example 298, 6-(1-(1-(cyclopropylmethyl)azepan-4-yl)piperidin-4-yl)-4-fluoro-1-methyl-2-(4-(methylsulfonyl)phenyl)-1H-benzo[d]imidazole] | 0.058 | 0.058 | > 50 | 3
Cn1c(-c2ccc(S(C)(=O)=O)cc2)nc2c(F)cc(C3CCN(C4CCCN(CC5CC5)CC4)CC3)cc21 (single isomer, unassigned) [Example 299, 6-(1-(1-(cyclopropylmethyl)azepan-4-yl)piperidin-4-yl)-4-fluoro-1-methyl-2-(4-(methylsulfonyl)phenyl)-1H-benzo[d]imidazole] | 0.0033 | 0.0033 | > 50 | 2.1
COCCN1CCCC(N2CCC(c3cc(F)c4nc(-c5ccc(S(C)(=O)=O)cc5)n(C)c4c3)CC2)CC1 (single isomer, unassigned) [Example 302, 4-fluoro-6-(1-(1-(2-methoxyethyl)azepan-4-yl)piperidin-4-yl)-1-methyl-2-(4-(methylsulfonyl)phenyl)-1H-benzo[d]imidazole] | 0.048 | 0.048 | > 50 | 1.9
COCCN1CCCC(N2CCC(c3cc(F)c4nc(-c5ccc(S(C)(=O)=O)cc5)n(C)c4c3)CC2)CC1 (single isomer, unassigned) [Example 303, 4-fluoro-6-(1-(1-(2-methoxyethyl)azepan-4-yl)piperidin-4-yl)-1-methyl-2-(4-(methylsulfonyl)phenyl)-1H-benzo[d]imidazole] | 0.014 | 0.014 | > 50 | 4.2
Cc1cc(C2CCN(C3CCCN(C4CCOCC4)CC3)CC2)cc2c1nc(-c1ccc(S(C)(=O)=O)cc1)n2C (single isomer, unassigned) [Example 306, 1,4-dimethyl-2-(4-(methylsulfonyl)phenyl)-6-(1-(1-(tetrahydro-2H-pyran-4-yl)azepan-4-yl)piperidin-4-yl)-1H-benzo[d]imidazole] | 0.017 | 0.017 | > 50 | 9.5
Cc1cc(C2CCN(C3CCCN(C4CCOCC4)CC3)CC2)cc2c1nc(-c1ccc(S(C)(=O)=O)cc1)n2C (single isomer, unassigned) [Example 307, 1,4-dimethyl-2-(4-(methylsulfonyl)phenyl)-6-(1-(1-(tetrahydro-2H-pyran-4-yl)azepan-4-yl)piperidin-4-yl)-1H-benzo[d]imidazole] | 0.0035 | 0.0035 | > 50 | 20.5
COCCN1CCCC(N2CCC(c3cc(C)c4nc(-c5ccc(S(C)(=O)=O)cc5)n(C)c4c3)CC2)CC1 (single isomer, unassigned) [Example 308, 6-(1-(1-(2-methoxyethyl)azepan-4-yl)piperidin-4-yl)-1,4-dimethyl-2-(4-(methylsulfonyl)phenyl)-1H-benzo[d]imidazole] | 0.0067 | 0.0067 | > 50 | 2.6
